Test results taken from patent US9309242B2, “Substituted pyrido[2,3-b]pyrazines as FGFR kinase inhibitors” (priority 2011, dated 2016).
Where two headings read alike, the source gives them in different places.

Experiments:
[1] = molecular target: T1, Ba/F3-FGFR1-transfected cells (Homo sapiens, UniProt P11362); test: Ba/F3-FGFR1 (minus IL3) cellular proliferation assay, Alamar Blue; assay type: cell-based
T1 construct: BAF3-FGFR1 (MIN IL3) pIC50; other: minus IL3
Outline: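 Viability of transfected Ba/F3-FGFR1 cells (20000 per well, RPMI-1640 with 10% FBS and 2 mM L-glutamine) was scored by resazurin-based Alamar Blue reduction over 4 h, after 24 h treatment with compound at 37 °C under 5% CO2.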

FGFR4 (h) = FGFR4 (h) (Homo sapiens, UniProt P22455); test: FGFR4 (enzymatic assay), TR-FRET; assay type: biochemical; settings: FGFR 4 pIC50, enzymatic assay
[2] = tested on: Ba/F3-FGFR1-transfected cells; test: Ba/F3-FGFR1 (plus IL3) cellular proliferation assay, counterscreen with 10 ng/ml murine IL3; assay type: cell-based; settings: read-out: BAF3-FGFR1 (PLUS IL3) pIC50 (converted)
Outline: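 Proliferation read-out: resazurin-based Alamar Blue fluorescence (540/590 nm) after 4 h, following 24 h compound treatment of 20000 Ba/F3-FGFR1 cells per well in 10% FBS RPMI at 37° C. IL3 counterscreen used the same protocol plus 10 ng/ml murine IL3.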

FGFR1 (h) = FGFR1 (h) (Homo sapiens, UniProt P11362); test: FGFR1 (enzymatic assay), TR-FRET; assay type: biochemical; settings: read-out: FGFR 1 pIC50 (converted)
KDR (h) = KDR (h) (Homo sapiens, UniProt P35968); test: KDR (VEGFR2) (enzymatic assay), TR-FRET; assay type: biochemical; settings: read-out: VEGFR 2 (KDR) pIC50 (converted)
Outline: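 3 μM ATP, 500 nM Btn-Flt3 substrate, 150 ng/ml kinase; HEPES pH 7.5 with MnCl2, DTT, vanadate, Triton; 1% DMSO. 120 min RT. Stop: EDTA + Eu-anti-P-Tyr + SA-XL-665, 60 min RT. Readout TR-FRET ex340/em620, 655 nm, RFU.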

[3] = molecular target: Ba/F3-FGFR4-transfected cells (Homo sapiens, UniProt P22455); test: Ba/F3-FGFR4 cellular proliferation assay, Alamar Blue; assay type: cell-based
Outline: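 Fluorescence read-out (ex. 540 nm, em. 590 nm) of resazurin-based Alamar Blue after 4 h, following 24 h compound exposure of Ba/F3-FGFR4-transfected cells (20000/well) at 37° C, 5% CO2.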

[4] = tested on: Ba/F3-KDR-transfected cells; test: Ba/F3-KDR (plus IL3) cellular proliferation assay, counterscreen with 10 ng/ml murine IL3; assay type: cell-based; settings: read-out: BAF3-KDR (PLUS IL3) pIC50 (converted)
Outline: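 Read-out: resazurin-based Alamar Blue fluorescence (ex. 540, em. 590 nm) after 4 h. Before that, cells were incubated with compound for 24 h at 37° C. The counterscreen ran identically but with IL3 supplemented.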

[5] = molecular target: T2, Ba/F3-FGFR3-transfected cells (Homo sapiens, UniProt P22607); test: Ba/F3-FGFR3 (minus IL3) cellular proliferation assay, Alamar Blue; assay type: cell-based
T2 construct: BAF3-FGFR3 (MIN IL3) pIC50; other: minus IL3
Outline: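 With or without 10 ng/ml murine IL3, FGFR3-dependent Ba/F3 cells were treated 24 h with compound, then viability was gauged by Alamar Blue fluorescence after 4 h (ex 540/em 590 nm).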

FGFR3 (h) = FGFR3 (h) (Homo sapiens, UniProt P22607); test: FGFR3 (enzymatic assay), TR-FRET; assay type: biochemical; settings: read-out: FGFR 3 pIC50 (converted)
Text: Time-Resolved Fluorescence Resonance Energy Transfer (TR-FRET) signal (ex340 nm.

[6] = average values if tested multiple times
[7] = plus IL3 (10 ng/ml murine IL3, counterscreen)

T1 sequence (P11362 whole entry, change not shown): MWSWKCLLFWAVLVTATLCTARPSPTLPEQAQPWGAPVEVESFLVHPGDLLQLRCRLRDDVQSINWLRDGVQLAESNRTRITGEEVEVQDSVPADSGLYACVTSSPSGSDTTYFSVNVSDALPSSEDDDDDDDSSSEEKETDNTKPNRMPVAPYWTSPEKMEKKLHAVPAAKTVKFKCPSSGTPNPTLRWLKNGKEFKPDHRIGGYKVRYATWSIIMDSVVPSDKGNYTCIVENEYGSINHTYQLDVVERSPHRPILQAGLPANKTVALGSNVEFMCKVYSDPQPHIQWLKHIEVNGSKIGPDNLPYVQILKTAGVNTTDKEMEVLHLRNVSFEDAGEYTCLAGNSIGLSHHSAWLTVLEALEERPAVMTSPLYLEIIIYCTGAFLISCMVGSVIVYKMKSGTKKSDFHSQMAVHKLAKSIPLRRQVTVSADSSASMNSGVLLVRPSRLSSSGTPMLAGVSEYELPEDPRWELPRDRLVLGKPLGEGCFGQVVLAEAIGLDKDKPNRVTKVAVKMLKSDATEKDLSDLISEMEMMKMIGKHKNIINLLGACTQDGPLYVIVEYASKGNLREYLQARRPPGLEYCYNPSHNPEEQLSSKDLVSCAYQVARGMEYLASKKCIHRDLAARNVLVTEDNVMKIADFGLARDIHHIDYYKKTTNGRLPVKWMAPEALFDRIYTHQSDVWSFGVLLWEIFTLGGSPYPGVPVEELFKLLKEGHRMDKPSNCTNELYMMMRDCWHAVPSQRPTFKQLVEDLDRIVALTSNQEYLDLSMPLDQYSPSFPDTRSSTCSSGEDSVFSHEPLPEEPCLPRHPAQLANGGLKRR
Sequence of FGFR4 (h) (P22455 22-802): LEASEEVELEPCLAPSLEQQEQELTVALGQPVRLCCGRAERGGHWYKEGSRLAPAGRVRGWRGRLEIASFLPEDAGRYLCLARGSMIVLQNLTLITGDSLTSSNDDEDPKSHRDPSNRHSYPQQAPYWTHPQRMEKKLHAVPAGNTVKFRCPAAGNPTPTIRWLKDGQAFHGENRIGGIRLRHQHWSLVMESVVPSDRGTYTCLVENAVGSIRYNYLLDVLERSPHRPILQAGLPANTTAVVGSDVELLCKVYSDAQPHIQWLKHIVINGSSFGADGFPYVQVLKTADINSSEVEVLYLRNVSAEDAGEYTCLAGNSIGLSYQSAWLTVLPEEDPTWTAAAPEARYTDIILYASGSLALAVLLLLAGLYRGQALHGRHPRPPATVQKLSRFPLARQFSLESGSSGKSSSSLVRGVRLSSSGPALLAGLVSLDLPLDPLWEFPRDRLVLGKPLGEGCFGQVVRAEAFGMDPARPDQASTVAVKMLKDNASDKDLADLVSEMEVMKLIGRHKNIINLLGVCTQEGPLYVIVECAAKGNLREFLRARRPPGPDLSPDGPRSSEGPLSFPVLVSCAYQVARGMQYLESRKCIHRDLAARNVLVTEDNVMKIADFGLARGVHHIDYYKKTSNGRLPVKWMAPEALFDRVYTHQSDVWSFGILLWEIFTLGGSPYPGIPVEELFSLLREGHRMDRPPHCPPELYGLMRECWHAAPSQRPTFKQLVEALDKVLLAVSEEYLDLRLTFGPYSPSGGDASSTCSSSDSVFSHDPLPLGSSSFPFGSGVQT
Sequence of KDR (h) (P35968 20-1356): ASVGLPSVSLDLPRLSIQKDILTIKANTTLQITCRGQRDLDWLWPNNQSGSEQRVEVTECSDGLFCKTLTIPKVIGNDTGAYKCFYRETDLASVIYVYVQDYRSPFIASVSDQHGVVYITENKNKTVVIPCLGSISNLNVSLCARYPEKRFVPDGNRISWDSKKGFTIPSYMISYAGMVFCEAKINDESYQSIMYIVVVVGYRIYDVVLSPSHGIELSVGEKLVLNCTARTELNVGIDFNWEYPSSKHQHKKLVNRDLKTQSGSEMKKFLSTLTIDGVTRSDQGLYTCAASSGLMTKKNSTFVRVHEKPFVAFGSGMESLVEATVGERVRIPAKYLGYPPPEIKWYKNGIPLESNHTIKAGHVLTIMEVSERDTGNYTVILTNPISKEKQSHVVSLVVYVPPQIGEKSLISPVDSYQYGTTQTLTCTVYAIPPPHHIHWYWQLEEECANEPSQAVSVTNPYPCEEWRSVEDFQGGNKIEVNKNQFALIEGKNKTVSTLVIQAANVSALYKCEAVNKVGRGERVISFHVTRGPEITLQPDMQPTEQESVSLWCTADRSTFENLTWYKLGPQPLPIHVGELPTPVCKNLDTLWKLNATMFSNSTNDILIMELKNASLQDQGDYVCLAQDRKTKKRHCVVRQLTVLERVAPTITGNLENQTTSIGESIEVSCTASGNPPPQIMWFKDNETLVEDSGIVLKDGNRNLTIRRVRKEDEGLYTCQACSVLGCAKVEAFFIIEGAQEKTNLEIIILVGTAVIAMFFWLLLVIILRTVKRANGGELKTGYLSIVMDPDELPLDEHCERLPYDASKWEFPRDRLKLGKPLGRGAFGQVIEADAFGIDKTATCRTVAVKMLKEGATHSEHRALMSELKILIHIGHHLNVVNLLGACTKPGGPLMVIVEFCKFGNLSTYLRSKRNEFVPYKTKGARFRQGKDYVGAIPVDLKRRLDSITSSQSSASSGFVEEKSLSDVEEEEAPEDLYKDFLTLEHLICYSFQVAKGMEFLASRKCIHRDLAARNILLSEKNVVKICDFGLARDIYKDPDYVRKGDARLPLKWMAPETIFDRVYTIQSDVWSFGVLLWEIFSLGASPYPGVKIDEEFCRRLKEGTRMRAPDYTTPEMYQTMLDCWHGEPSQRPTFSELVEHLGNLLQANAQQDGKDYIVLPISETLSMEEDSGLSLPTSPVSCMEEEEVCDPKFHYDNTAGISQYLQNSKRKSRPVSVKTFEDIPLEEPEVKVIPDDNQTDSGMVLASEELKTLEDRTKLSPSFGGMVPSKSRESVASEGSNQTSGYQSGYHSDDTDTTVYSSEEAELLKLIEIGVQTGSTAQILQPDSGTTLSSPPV
T2 sequence (P22607 whole entry, change not shown): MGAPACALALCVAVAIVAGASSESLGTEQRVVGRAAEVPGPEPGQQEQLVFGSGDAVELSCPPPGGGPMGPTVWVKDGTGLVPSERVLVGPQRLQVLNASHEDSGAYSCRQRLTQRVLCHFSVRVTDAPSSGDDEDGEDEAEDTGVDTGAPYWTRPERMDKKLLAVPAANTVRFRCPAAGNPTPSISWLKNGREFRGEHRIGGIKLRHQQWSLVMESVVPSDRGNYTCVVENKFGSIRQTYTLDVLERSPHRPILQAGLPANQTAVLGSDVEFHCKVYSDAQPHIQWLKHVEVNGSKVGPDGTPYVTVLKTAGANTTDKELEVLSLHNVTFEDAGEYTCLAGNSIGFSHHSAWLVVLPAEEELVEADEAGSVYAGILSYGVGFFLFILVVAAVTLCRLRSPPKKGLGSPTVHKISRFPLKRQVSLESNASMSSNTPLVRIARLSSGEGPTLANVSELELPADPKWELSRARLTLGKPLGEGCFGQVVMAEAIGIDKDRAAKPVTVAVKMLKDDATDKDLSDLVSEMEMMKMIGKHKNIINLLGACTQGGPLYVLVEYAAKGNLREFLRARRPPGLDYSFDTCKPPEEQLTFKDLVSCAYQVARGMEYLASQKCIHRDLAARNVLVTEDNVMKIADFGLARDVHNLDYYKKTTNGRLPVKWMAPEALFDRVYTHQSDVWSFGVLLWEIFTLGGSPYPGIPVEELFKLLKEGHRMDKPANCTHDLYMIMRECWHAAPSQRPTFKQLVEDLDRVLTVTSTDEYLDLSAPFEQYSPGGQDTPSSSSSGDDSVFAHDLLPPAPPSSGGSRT
Sequence of FGFR1 (h) (P11362 22-822): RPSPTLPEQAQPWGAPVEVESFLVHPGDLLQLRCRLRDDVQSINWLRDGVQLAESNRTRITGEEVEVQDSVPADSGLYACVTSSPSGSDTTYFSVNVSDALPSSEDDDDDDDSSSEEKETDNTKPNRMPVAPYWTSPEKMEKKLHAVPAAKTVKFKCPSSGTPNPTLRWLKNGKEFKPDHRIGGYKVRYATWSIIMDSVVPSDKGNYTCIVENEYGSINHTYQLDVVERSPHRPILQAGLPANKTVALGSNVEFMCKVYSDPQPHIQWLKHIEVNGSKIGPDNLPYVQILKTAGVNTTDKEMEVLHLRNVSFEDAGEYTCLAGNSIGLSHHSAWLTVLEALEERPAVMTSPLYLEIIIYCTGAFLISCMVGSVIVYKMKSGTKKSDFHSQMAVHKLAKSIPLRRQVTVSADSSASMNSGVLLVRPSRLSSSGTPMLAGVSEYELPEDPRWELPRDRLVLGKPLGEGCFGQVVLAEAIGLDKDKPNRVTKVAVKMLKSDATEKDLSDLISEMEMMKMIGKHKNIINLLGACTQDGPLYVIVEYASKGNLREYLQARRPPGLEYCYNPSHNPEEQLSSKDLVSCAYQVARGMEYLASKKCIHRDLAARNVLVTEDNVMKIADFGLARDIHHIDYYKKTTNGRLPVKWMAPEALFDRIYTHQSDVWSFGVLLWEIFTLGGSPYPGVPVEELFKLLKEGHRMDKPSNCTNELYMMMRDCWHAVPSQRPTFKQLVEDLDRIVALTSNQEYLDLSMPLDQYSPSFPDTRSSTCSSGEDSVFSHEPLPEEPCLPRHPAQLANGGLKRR

COCC(O)CN(c1cc(OC)cc(OC)c1)c1ccc2ncc(-c3cnn(C)c3)nc2n1 (stereo not drawn) [Compound 7]
BAF3-FGFR1 (MIN IL3) pIC50 [1]: 7.0
IC50 (FGFR4 (h); [6]): 6.31 nM
IC50 [2, 7]: > 10000 nM
IC50 (FGFR1 (h); [6]): 3.16 nM
IC50 (KDR (h); [6]): 200 nM
BAF3-FGFR4 pIC50 [3]: 6.53
IC50 [4, 7]: > 10000 nM
BAF3-FGFR3 (MIN IL3) pIC50 [5]: 7.1
IC50 (FGFR3 (h); [6]): 1.58 nM

COc1cc(OC)c(Cl)c(N(Cc2ncc[nH]2)c2ccc3ncc(-c4cnn(C)c4)nc3n2)c1Cl [Compound 98]
BAF3-FGFR1 (MIN IL3) pIC50 [1]: 7.72
IC50 (FGFR4 (h); [6]): 7.76 nM
IC50 [2, 7]: > 10000 nM
IC50 (FGFR1 (h); [6]): ~3.89 nM
IC50 (KDR (h); [6]): 16.6 nM
BAF3-FGFR4 pIC50 [3]: 6.56
IC50 [4, 7]: > 10000 nM
BAF3-FGFR3 (MIN IL3) pIC50 [5]: 7.65
IC50 (FGFR3 (h); [6]): 2.69 nM

COc1cc(OC)c(Cl)c(N(CC2CCC(=O)N2)c2ccc3ncc(-c4cnn(C)c4)nc3n2)c1Cl (single isomer, unassigned) [Compound 88]
BAF3-FGFR1 (MIN IL3) pIC50 [1]: 6.68
IC50 (FGFR4 (h); [6]): 42.7 nM
IC50 [2, 7]: > 10000 nM
IC50 (FGFR1 (h); [6]): 12.9 nM
IC50 (KDR (h); [6]): 102 nM
BAF3-FGFR4 pIC50 [3]: 5.65
IC50 [4, 7]: > 10000 nM
BAF3-FGFR3 (MIN IL3) pIC50 [5]: 6.57
IC50 (FGFR3 (h); [6]): 6.76 nM

COc1cc(OC)c(F)c(N(Cc2nc3c([nH]2)CCNC3)c2ccc3ncc(-c4cnn(C)c4)nc3n2)c1 [Compound 104]
BAF3-FGFR1 (MIN IL3) pIC50 [1]: 6.70
IC50 (FGFR4 (h); [6]): 3.47 nM
IC50 [2, 7]: > 10000 nM
IC50 (FGFR1 (h); [6]): 2.57 nM
IC50 (KDR (h); [6]): 26.3 nM
BAF3-FGFR4 pIC50 [3]: 5.74
IC50 [4, 7]: > 10000 nM
BAF3-FGFR3 (MIN IL3) pIC50 [5]: ~6.01
IC50 (FGFR3 (h); [6]): 3.09 nM

COc1cc(OC)c(F)c(N(CCN)c2ccc3ncc(-c4cnn(C)c4)nc3n2)c1F [Compound 67]
BAF3-FGFR1 (MIN IL3) pIC50 [1]: 8.20
IC50 (FGFR4 (h); [6]): 2.75 nM
IC50 [2, 7]: > 10000 nM
IC50 (FGFR1 (h); [6]): 0.813 nM
IC50 (KDR (h); [6]): 14.5 nM
BAF3-FGFR4 pIC50 [3]: 7.37
IC50 [4, 7]: > 10000 nM
BAF3-FGFR3 (MIN IL3) pIC50 [5]: 7.83
IC50 (FGFR3 (h); [6]): 1.2 nM

COc1cc(OC)c(F)c(N(CCCN2CCCC2=O)c2ccc3ncc(-c4cnn(C)c4)nc3n2)c1 [Compound 120]
BAF3-FGFR1 (MIN IL3) pIC50 [1]: 7.27
IC50 (FGFR4 (h)): 3.24 nM
IC50 [2, 7]: > 10000 nM
IC50 (FGFR1 (h)): 4.17 nM
IC50 (KDR (h)): 19.1 nM
BAF3-FGFR4 pIC50 [3]: 6.84
IC50 [4, 7]: > 10000 nM
BAF3-FGFR3 (MIN IL3) pIC50 [5]: 7.16
IC50 (FGFR3 (h)): 1.86 nM

COCC(O)Cn1c(=Nc2c(F)c(OC)cc(OC)c2F)ccc2ncc(-c3cnn(C)c3)nc21 (stereo not drawn) [Compound 51]
BAF3-FGFR1 (MIN IL3) pIC50 [1]: 8.48
IC50 (FGFR4 (h); [6]): 0.525 nM
IC50 [2, 7]: > 10000 nM
IC50 (FGFR1 (h); [6]): 0.589 nM
IC50 (KDR (h); [6]): 7.76 nM
BAF3-FGFR4 pIC50 [3]: 7.77
IC50 [4, 7]: > 10000 nM
BAF3-FGFR3 (MIN IL3) pIC50 [5]: ~8.03
IC50 (FGFR3 (h); [6]): 0.501 nM

COc1cc(OC)cc(N(CCCN2CCCC2=O)c2ccc3ncc(-c4cnn(C)c4)nc3n2)c1 [Compound 134]
BAF3-FGFR1 (MIN IL3) pIC50 [1]: 6.43
IC50 (FGFR4 (h)): 11.7 nM
IC50 [2, 7]: > 10000 nM
IC50 (FGFR1 (h)): 8.71 nM
IC50 (KDR (h)): 35.5 nM
BAF3-FGFR4 pIC50 [3]: 5.99
IC50 [4, 7]: > 10000 nM
BAF3-FGFR3 (MIN IL3) pIC50 [5]: ~6.64
IC50 (FGFR3 (h)): 3.8 nM

COc1cc(OC)cc(N(CC#Cc2ncccc2OC)c2ccc3ncc(-c4cnn(C)c4)nc3n2)c1 [Compound 26]
BAF3-FGFR1 (MIN IL3) pIC50 [1]: 6.8
IC50 (FGFR4 (h); [6]): 63.1 nM
IC50 [2, 7]: > 10000 nM
IC50 (FGFR1 (h); [6]): 50.1 nM
IC50 (KDR (h); [6]): 501 nM
BAF3-FGFR4 pIC50 [3]: <5
IC50 [4, 7]: > 10000 nM
BAF3-FGFR3 (MIN IL3) pIC50 [5]: ~5.55
IC50 (FGFR3 (h); [6]): 39.8 nM

COc1cc(OC)c(F)c(N(CCCN2CCCC2=O)c2ccc3ncc(-c4cnn(C)c4)nc3n2)c1F [Compound 56]
BAF3-FGFR1 (MIN IL3) pIC50 [1]: 7.53
IC50 (FGFR4 (h); [6]): 2.29 nM
IC50 [2, 7]: > 10000 nM
IC50 (FGFR1 (h); [6]): 0.891 nM
IC50 (KDR (h); [6]): 7.76 nM
BAF3-FGFR4 pIC50 [3]: 7.41
IC50 [4, 7]: > 10000 nM
BAF3-FGFR3 (MIN IL3) pIC50 [5]: 7.87
IC50 (FGFR3 (h); [6]): 2.75 nM

COc1cc(OC)cc(N(CC(O)C(F)(F)F)c2ccc3ncc(-c4cnn(C)c4)nc3n2)c1 (single isomer, unassigned) [Compound 33]
BAF3-FGFR1 (MIN IL3) pIC50 [1]: 7.60
IC50 (FGFR4 (h); [6]): 1.41 nM
IC50 [2, 7]: > 10000 nM
IC50 (FGFR1 (h); [6]): 0.871 nM
IC50 (KDR (h); [6]): 75.9 nM
BAF3-FGFR4 pIC50 [3]: ~7.03
IC50 [4, 7]: > 10000 nM
BAF3-FGFR3 (MIN IL3) pIC50 [5]: ~7.64
IC50 (FGFR3 (h); [6]): 0.708 nM

COc1cc(OC)c(F)c(N(Cc2c[nH]cn2)c2ccc3ncc(-c4cnn(C)c4)nc3n2)c1 [Compound 41]
BAF3-FGFR1 (MIN IL3) pIC50 [1]: 7.99
IC50 (FGFR4 (h); [6]): 0.759 nM
IC50 [2, 7]: > 10000 nM
IC50 (FGFR1 (h); [6]): 0.363 nM
IC50 (KDR (h); [6]): 5.37 nM
BAF3-FGFR4 pIC50 [3]: 7.47
IC50 [4, 7]: > 10000 nM
BAF3-FGFR3 (MIN IL3) pIC50 [5]: 8.08
IC50 (FGFR3 (h); [6]): 0.589 nM

COc1cc(OC)c(Cl)c(N(C[C@H]2CCC(=O)N2)c2ccc3ncc(-c4cnn(C)c4)nc3n2)c1Cl [Compound 97]
BAF3-FGFR1 (MIN IL3) pIC50 [1]: 6.80
IC50 (FGFR4 (h); [6]): 26.3 nM
IC50 [2, 7]: > 10000 nM
IC50 (FGFR1 (h); [6]): 5.25 nM
IC50 (KDR (h); [6]): 95.5 nM
BAF3-FGFR4 pIC50 [3]: 5.95
IC50 [4, 7]: > 10000 nM
BAF3-FGFR3 (MIN IL3) pIC50 [5]: ~6.83
IC50 (FGFR3 (h); [6]): 4.68 nM

COc1cc(OC)c(F)c(N(Cc2ncccn2)c2ccc3ncc(-c4cnn(C)c4)nc3n2)c1 [Compound 9]
BAF3-FGFR1 (MIN IL3) pIC50 [1]: 7.4
IC50 (FGFR4 (h); [6]): 25.1 nM
IC50 [2]: > 10000 nM
IC50 (FGFR1 (h); [6]): 5.62 nM
IC50 (KDR (h); [6]): 50.1 nM
BAF3-FGFR4 pIC50 [3]: 6.79
IC50 [4]: > 10000 nM
BAF3-FGFR3 (MIN IL3) pIC50 [5]: ~7.2
IC50 (FGFR3 (h); [6]): 15.8 nM

COc1ccc(F)c(N(Cc2ncc[nH]2)c2ccc3ncc(-c4cnn(C)c4)nc3n2)c1Cl [Compound 73]
BAF3-FGFR1 (MIN IL3) pIC50 [1]: 7.59
IC50 (FGFR4 (h); [6]): 15.1 nM
IC50 [2, 7]: > 10000 nM
IC50 (FGFR1 (h); [6]): 2.4 nM
IC50 (KDR (h); [6]): 63.1 nM
BAF3-FGFR4 pIC50 [3]: 6.50
IC50 [4, 7]: > 10000 nM
BAF3-FGFR3 (MIN IL3) pIC50 [5]: 7.46
IC50 (FGFR3 (h); [6]): 2.82 nM
